In brackets after ≈: the same amount, converted by molar mass. Like-named read-outs stand apart in the source and are kept apart here. Each block holds one compound with its values, some of them ahead of it.
Assays:
[1] = cited from earlier work
COX-2 = details: cited from earlier work
[2] = Forced degradation stability study (ICH guideline for new drug substance); format: physicochemical; details: for Forced tests results, Mean ±SD: fraction recovered intact, 3 replications
Procedure: The stability study was conducted according to forced degradation protocol ICH guideline for new drug substance ([14]-[16]). In brief, the stability of AZGH101 at acidic, basic, and neutral medium was evaluated. Moreover, the effect of oxidative condition (H2O2, 3 and 30%), thermal degradation at solid state, and photolysis on the stability of AZGH101 was examined.

[3] = Aqueous solubility (OECD Guideline No. 105); format: physicochemical; details: water; 3 replications
Procedure: (§1) Melting point was determined with an Electrothermal 9200 apparatus (UK). Aqueous solubility and octanol/water partition coefficient of the synthesized derivative was determined according to Organisation for Economic Co-operation and Development (OECD) Guideline for Testing of Chemicals, No.105, and No. 107 respectively ([11]-[13]).

[4] = Octanol/water partition coefficient, log P (OECD Guideline No. 107); format: physicochemical; details: n = 3, read-out: log P (logarithm of octanol/water partition coefficient)
Procedure: as §1

[5] = Pharmacokinetic study after oral and intravenous administration to Wistar rats; format: in vivo; details: for k el: Wistar, read-out: β (elimination rate constant) (converted); for bioavailability: oral 20 mg/kg vs intravenous 10 mg/kg; for half-life: read-out: t1/2 β (converted)
Procedure: Male and female Wistar rats weighting 250 ± 10 g were used. They were kept at 25 ± 1 °C temperature and controlled humidity with 12 h light/dark cycle. The animals were fasted overnight before the experiment and had free access to water. The study protocol was approved by the local committee for animal experiments of Shahid Beheshti University of Medical Sciences (Tehran, Iran).
Male or female rats were chosen randomly (6 rats/group) and assigned to receive […] solution in normal saline for intravenous (IV) via the tail vein or oral administration via oral gavages. The administered doses in both sexes for intravenous (IV) and oral studies were 10 mg/kg and 20 mg/kg, respectively. Blood samples were collected from the tail vein immediately prior to administration (blank sample) and at 0.08, 0.25, 0.5, 1, 2, 4, 6, 8, 10, 21 and 22 h after administration into heparinized micro-tubes. Blood samples were centrifuged at 1000 g for 10 min and the separated plasmas were kept at –20 °C until analysis.
Pharmacokinetic analyses were performed using WinNonlin software (Pharsight Corporation, Mountain View, USA, Version 3.2) and two-compartmental model was chosen. The following pharmacokinetic parameters were estimated: terminal elimination half-life (t1/2), area under the plasma concentration versus time curve from zero to the infinity (AUC 0-∞), distribution and elimination rate constants (α, β), volume of distribution (Vd), and total body clearance (CL). The peak plasma concentration (Cmax) and the time to reach Cmax (Tmax) for oral dose were obtained directly from the observed individual plasma concentration-time data.

[6] = 'It was reported'; cited from earlier work
[7] = oral 20 mg/kg, female Wistar rats
[8] = oral 20 mg/kg, male Wistar rats
[9] = rat, plasma, intravenous 10 mg/kg, female Wistar rats
[10] = rat, plasma, intravenous 10 mg/kg, male Wistar rats
[11] = rat, plasma, oral 20 mg/kg, female Wistar rats
[12] = rat, plasma, oral 20 mg/kg, male Wistar rats

Compound: CC(C(=O)O)c1cccc(C(=O)c2ccccc2)c1 (stereo not drawn) [ketoprofen]
log P [1]: 3.1

Forced tests results, Mean ±SD ([2]; Hydrolysis (Acid)): 0.95±0.02 | Forced tests results, Mean ±SD ([2]; Hydrolysis (Base)): 0.92±0.03 | Forced tests results, Mean ±SD ([2]; Hydrolysis (Buffer pH=7)): 0.94±0.02 | Forced tests results, Mean ±SD ([2]; Oxidative stress (H2O2-3%)): 0.93±0.04 | Forced tests results, Mean ±SD ([2]; Oxidative stress (H2O2-30%)): 0.91±0.02 | Forced tests results, Mean ±SD ([2]; Photodegradation (Acid)): 0.94±0.02 | Forced tests results, Mean ±SD ([2]; Photodegradation (Base)): 0.94±0.01 | Forced tests results, Mean ±SD ([2]; Photodegradation (Buffer pH=7)): 0.95±0.02 | Forced tests results, Mean ±SD ([2]; Thermal Degradation (solid phase)): 0.96±0.03 | AZGH101 recovered intact ([2]; in all of the examined stress conditions): more than 90% | solubility [3]: 1.4 ± 0.17 µg/mL (≈ 3.24 µM) | logP [4]: 3.82 ± 0.001 | k el ([5]; female, rat, plasma, iv, 10 mg/kg, intravenous 10 mg/kg, female Wistar rats): 9.72e-05 s⁻¹ | k el ([5]; female, rat, plasma, po, 20 mg/kg, oral 20 mg/kg, female Wistar rats): 3.61e-05 s⁻¹ | α (distribution rate constant) ([5]; intravenous 10 mg/kg, female Wistar rats): 3.70 ± 0.80 h⁻¹ | β (elimination rate constant) ([5]; intravenous 10 mg/kg, female Wistar rats, 10 mg/kg): 0.355 ± 0.006 h⁻¹ | α (distribution rate constant) ([5]; intravenous 10 mg/kg, male Wistar rats): 4.25 ± 0.99 h⁻¹ | β (elimination rate constant) ([5]; intravenous 10 mg/kg, male Wistar rats, 10 mg/kg): 0.349 ± 0.008 h⁻¹ | k el ([5]; male, rat, plasma, iv, 10 mg/kg, intravenous 10 mg/kg, male Wistar rats): 9.72e-05 s⁻¹ | k el ([5]; male, rat, plasma, po, 20 mg/kg, oral 20 mg/kg, male Wistar rats): 3.89e-05 s⁻¹ | Cl [5, 7]: 31.73 ± 3.31 mL/h | Ka [5, 7]: 1.00 ± 0.10 h⁻¹ | Vd [5, 7]: 245.87 ± 44.86 mL | α (distribution rate constant) [5, 7]: 3.86 ± 2.99 h⁻¹ | Cl [5, 8]: 32.45 ± 1.65 mL/h | Ka [5, 8]: 0.92 ± 0.18 h⁻¹ | Vd [5, 8]: 233.55 ± 27.82 mL | α (distribution rate constant) [5, 8]: 3.34 ± 1.26 h⁻¹ | bioavailability ([5]; rat, plasma, Wistar rats, both sexes, read-out: oral absolute bioavailability): ~27% | AUC(0-inf) [5, 9]: 79400 ± 5810 ng·h/mL | C0 [5, 9]: 86.8 ± 11.3 µg/mL | clearance [5, 9]: 0.527 mL/min | Vd ([5]; rat, plasma, intravenous 10 mg/kg, female Wistar rats, read-out: Vd): 89.3 ± 7.68 mL | half-life [5, 9]: 1.97 ± 0.06 h | AUC(0-inf) [5, 10]: 77100 ± 3620 ng·h/mL | C0 [5, 10]: 92.3 ± 11 µg/mL | clearance [5, 10]: 0.541 mL/min | Vd ([5]; rat, plasma, intravenous 10 mg/kg, male Wistar rats, read-out: Vd): 94.1 ± 6.42 mL | half-life [5, 10]: 2.01 ± 0.04 h | bioavailability ([5]; rat, plasma, female Wistar rats, read-out: F (oral absolute bioavailability)): 27.73 ± 0.01% | bioavailability ([5]; rat, plasma, male Wistar rats, read-out: F (oral absolute bioavailability)): 26.02 ± 0.03% | AUC(0-inf) [5, 11]: 41300 ± 4200 ng·h/mL | Cmax [5, 11]: 21.8 ± 1.33 µg/mL | Tmax [5, 11]: 0.5 h | half-life [5, 11]: 5.34 ± 0.48 h | AUC(0-inf) [5, 12]: 42800 ± 2240 ng·h/mL | Cmax [5, 12]: 20.4 ± 1.49 µg/mL | Tmax [5, 12]: 0.5 h | half-life [5, 12]: 4.99 ± 0.52 h
Compound: CS(=O)(=O)c1ccc(-c2cc(C(=O)O)c3cc(C(=O)c4ccccc4)ccc3n2)cc1 [AZGH101, 6-benzoyl-2-(4-(methylsulfonyl)phenyl)quinoline-4-carboxylic acid]
IC50 (COX-2): 77 nM | selectivity index (COX-1 IC50 / COX-2 IC50) (COX-2): less than 500 | tendency against inhibition of COX-2, times greater than ketoprofen (COX-2; relative to ketoprofen): about 10 times

Compound: Cc1ccc(-c2cc(C(F)(F)F)nn2-c2ccc(S(N)(=O)=O)cc2)cc1 [celecoxib]
solubility in water [6]: 3.3 µg/mL (≈ 8.65 µM)
